Laboratory results published in patent US20030073097A1, “TRAF6-regulated IKK activators (TRIKA1 and TRIKA2) and their use as anti-inflammatory targets” (priority 2001, published 2003).
Peptide text beside a SMILES is read from it. * marks the point of attachment. Cbz = O=C(OCc1ccccc1)*

Assays:
proteasome = conditions: 20 μM; Chen et al., 1995; cited from earlier work
IKK = target: T1, IKK (Homo sapiens, UniProt O14920+O15111); experiment: In vitro assay for IKK activation by TRAF6 (IκBα phosphorylation); format: biochemical; conditions: inhibitor at 20 μM added to the assay
T1 construct: IKK complex was purified form HeLa cells or from calf thymus using ATP-Sepharose; endogenous in cells
Protocol: In vitro Assay for IKK Activation. To detect endogenous IKK activation, cell extracts (5 mg/ml) were incubated with TRAF6 (or, T6RZC, 0.1 μM) together with an ATP regenerating buffer (Chen et al., 1995). After incubation at 30° C. for 1 hour, the reaction was analyzed by immunoblotting with a phospho-IκBα specific antibody. To identify intermediary factors involved in TRAF6-mediated IKK activation, the inventors used a reconstitution assay by adding ^35S-IκBα (0.5 μl) and purified IKK complex (5 nM) to a 5 μl reaction mixture that also contains ATP (2 mM), TRAF6 (0.1 μM), and column fractions (0.5-1 μl). In most IKK activation assays, E1 (0.1 μM) and Ub (0.1 mM) were also added to enhance the reaction, although they can be supplied from the wheat germ extracts used for in vitro translation of IκBα. As an assay for purification of TRIKA1, reaction mixtures also contain 0.5 μg TRIKA2/FrIIa, a fraction eluted from Q-Sepharose with 0.2M NaCl. The reaction was carried out at 30° C. for 1 hour, and then analyzed using a PhosphorImager (Molecular Dynamics) following SDS-PAGE.

T6RZC stable 293 cells = experiment: Coumermycin A-induced TRAF6-gyrase B (T6RZC) dimerization in stable 293 cells, IκBα degradation; format: cell-based, human; conditions: 293 cells stably expressing T6RZC; coumermycin A 1 μM
Protocol: Generation of TRAF6-gyraseB stable cell lines. The TRAF6-gyrase B fusion was constructed by replacing the C-terminal TRAF domain of TRAF6 (residues 1-358) with the N-terminal fragment of bacterial gyrase B (T6RZC). Another chimeric construct contained residues 1-291 of TRAF6 (T6RZ). These chimeras were cloned into the mammalian expression vector pEF-IRES-P (Deng et al., 2000). Following transfection of DNA into 293 cells, stable clones were selected in puromycin (1 μg/ml). To induce the dimerization of TRAF6 and subsequent activation of the JNK and IKK pathways, cells were treated with coumermycin A (1 μM) for different lengths of time, and then cell extracts prepared for further analysis.

T1 sequence (O14920 whole entry): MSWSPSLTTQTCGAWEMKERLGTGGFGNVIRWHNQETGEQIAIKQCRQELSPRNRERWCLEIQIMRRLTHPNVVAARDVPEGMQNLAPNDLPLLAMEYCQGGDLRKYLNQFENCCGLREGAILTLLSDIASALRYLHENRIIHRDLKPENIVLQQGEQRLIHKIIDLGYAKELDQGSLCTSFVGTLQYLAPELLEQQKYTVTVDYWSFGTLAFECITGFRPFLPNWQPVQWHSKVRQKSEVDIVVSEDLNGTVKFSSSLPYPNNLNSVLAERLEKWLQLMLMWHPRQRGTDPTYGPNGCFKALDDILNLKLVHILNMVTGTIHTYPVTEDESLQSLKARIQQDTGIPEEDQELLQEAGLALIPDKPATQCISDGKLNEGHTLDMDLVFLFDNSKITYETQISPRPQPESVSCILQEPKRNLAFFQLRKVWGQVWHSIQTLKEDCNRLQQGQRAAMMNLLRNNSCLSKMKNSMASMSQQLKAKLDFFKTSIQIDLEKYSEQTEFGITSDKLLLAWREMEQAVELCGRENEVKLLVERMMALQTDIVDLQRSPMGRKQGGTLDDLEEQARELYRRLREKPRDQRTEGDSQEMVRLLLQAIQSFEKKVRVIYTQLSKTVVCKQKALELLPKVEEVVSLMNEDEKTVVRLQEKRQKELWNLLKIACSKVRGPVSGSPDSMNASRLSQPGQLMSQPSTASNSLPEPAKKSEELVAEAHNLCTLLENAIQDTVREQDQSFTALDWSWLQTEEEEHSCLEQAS
T1 sequence (O15111 whole entry): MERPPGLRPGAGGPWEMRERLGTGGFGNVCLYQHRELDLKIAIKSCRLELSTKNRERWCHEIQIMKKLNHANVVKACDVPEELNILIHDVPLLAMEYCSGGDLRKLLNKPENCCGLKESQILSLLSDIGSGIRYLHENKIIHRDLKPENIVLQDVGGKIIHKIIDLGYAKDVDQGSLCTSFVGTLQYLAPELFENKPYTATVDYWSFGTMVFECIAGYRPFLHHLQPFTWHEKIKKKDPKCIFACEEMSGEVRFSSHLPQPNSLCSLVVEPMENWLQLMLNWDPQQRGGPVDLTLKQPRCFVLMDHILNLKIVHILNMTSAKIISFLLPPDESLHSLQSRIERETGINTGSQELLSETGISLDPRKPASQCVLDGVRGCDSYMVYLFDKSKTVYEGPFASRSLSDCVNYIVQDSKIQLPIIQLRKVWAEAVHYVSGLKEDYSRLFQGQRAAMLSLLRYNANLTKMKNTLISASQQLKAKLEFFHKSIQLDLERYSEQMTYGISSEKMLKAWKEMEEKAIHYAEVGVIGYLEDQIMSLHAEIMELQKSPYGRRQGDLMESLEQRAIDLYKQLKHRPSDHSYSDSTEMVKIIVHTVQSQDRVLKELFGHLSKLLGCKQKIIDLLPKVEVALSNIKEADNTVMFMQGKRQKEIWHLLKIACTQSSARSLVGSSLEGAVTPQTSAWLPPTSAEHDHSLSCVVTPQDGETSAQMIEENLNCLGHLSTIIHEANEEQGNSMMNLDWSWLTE
T1 sequence (Q9Y6K9 whole entry partner): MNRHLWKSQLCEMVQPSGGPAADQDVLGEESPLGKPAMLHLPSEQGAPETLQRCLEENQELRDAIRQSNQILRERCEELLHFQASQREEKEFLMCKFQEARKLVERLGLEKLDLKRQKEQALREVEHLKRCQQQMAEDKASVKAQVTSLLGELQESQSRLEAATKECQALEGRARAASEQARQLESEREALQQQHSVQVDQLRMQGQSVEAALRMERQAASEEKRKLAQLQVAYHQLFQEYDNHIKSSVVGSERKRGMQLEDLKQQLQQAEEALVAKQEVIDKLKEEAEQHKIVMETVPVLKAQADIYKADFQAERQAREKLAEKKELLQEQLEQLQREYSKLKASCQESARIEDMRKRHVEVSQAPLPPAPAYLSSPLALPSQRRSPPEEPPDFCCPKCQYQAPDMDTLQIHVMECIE

In the case of `CC(C)C[C@@H](C=O)NC(=O)[C@H](CC(C)C)NC(=O)[C@H](CC(C)C)NC(=O)OCc1ccccc1` [MG132] (Cbz-Leu-Leu-Leu-aldehyde), the “Block of proteasomal activity” value (proteasome) is listed as “completely block” and the “Inhibition of IKK activation by TRAF6” value (IKK) is listed as “No inhibition”.
With `CO[C@H]1[C@H](OC(=O)c2ccc(C)[nH]2)[C@H](O)[C@@H](Oc2ccc3c(O)c(NC(=O)c4c[nH]c(C(=O)Nc5c(O)c6ccc(O[C@H]7OC(C)(C)[C@@H](OC)[C@H](OC(=O)c8ccc(C)[nH]8)[C@@H]7O)c(C)c6oc5=O)c4C)c(=O)oc3c2C)OC1(C)C` [coumermycin A] the “Degradation of IκBα upon addition of the dimerizer” value (T6RZC stable 293 cells) was “rapidly degraded”.
In the case of `CC(=O)N[C@@H](CSC(=O)[C@]1([C@@H](O)C(C)C)NC(=O)[C@H](C)[C@@H]1O)C(=O)O` [lactacystin], the “Block of proteasomal activity” value (proteasome) is given as “completely block” and the “Inhibition of IKK activation by TRAF6” value (IKK) is given as “No inhibition”.
